Reference: patent publication US6737383B1, “Herbicidal oxadiazolidines” (priority 1999, dated 2004)

What was measured:
surinam grass = assay: Test B pre/postemergence surinam grass; type: in vivo, Brachiaria decumbens
Procedure, shortened: (§1)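 Herbicidal effect was estimated by eye on a ten-point control scale after plants spent twelve to sixteen days in a greenhouse following soil or foliar treatment. Foliar sprays targeted plants at one to four leaves; all doses were formulated in a non-phytotoxic solvent with surfactant.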

cocklebur = assay: Test B pre/postemergence cocklebur; type: in vivo, Xanthium strumarium
Procedure, shortened: as §1

corn = assay: Test B pre/postemergence corn; type: in vivo, Zea mays
Procedure, shortened: as §1

crabgrass = assay: Test B pre/postemergence crabgrass; type: in vivo, Digitaria sanguinalis
Procedure, shortened: as §1

giant foxtail = assay: Test B pre/postemergence giant foxtail; type: in vivo, Setaria faberii
Procedure, shortened: as §1

morningglory = assay: Test B pre/postemergence morningglory; type: in vivo, Ipomoea hederacea
Procedure, shortened: as §1

pigweed = assay: Test B pre/postemergence pigweed; type: in vivo, Amaranthus retroflexus
Procedure, shortened: as §1

rape = assay: Test B pre/postemergence rape; type: in vivo, Brassica napus
Procedure, shortened: as §1

soybean = assay: Test B pre/postemergence soybean; type: in vivo, Glycine max
Procedure, shortened: as §1

sugar beet = assay: Test B pre/postemergence sugar beet; type: in vivo, Beta vulgaris
Procedure, shortened: as §1

wild oat = assay: Test B pre/postemergence wild oat; type: in vivo, Avena fatua
Procedure, shortened: as §1

purple nutsedge = assay: Test B pre/postemergence purple nutsedge; type: in vivo, Cyperus rotundus
Procedure, shortened: as §1

rice = assay: Test B flood test rice; type: in vivo, Oryza sativa
Procedure, shortened: (§2)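 Read-out is a visual response score from 0 (no effect) to 10 (complete control), assigned by comparison with untreated controls. Treatment was applied at the 2-leaf stage, and plants stayed in the greenhouse for twelve to sixteen days before scoring.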

smallflower flatsedge = assay: Test B flood test smallflower flatsedge; type: in vivo, Cyperus difformis
Procedure, shortened: as §2

duck salad = assay: Test B flood test duck salad; type: in vivo, Heteranthera limosa
Procedure, shortened: as §2

bamyardgrass = assay: Test B flood test barnyardgrass; type: in vivo, Echinochloa crus-galli
Procedure, shortened: as §2

[1] = Preemergence, Rate 62 g/ha, scale of 0 to 10 where 0 is no effect and 10 is complete control
[2] = Preemergence, Rate 500 g/ha, scale of 0 to 10 where 0 is no effect and 10 is complete control
[3] = Rate 62 g/ha, Postemergence, scale of 0 to 10 where 0 is no effect and 10 is complete control
[4] = Rate 125 g/ha, Preemergence, scale of 0 to 10 where 0 is no effect and 10 is complete control
[5] = Rate 500 g/ha, Postemergence, scale 0 to 10, 0 no effect, 10 complete control
[6] = Preemergence, Rate 250 g/ha, scale of 0 to 10 where 0 is no effect and 10 is complete control
[7] = Rate 125 g/ha, Postemergence, scale 0 to 10
[8] = Rate 62 g/ha, headed Pre-emergence (flood test species), scale 0 to 10 (0 no effect, 10 complete control)
[9] = Rate 125 g/ha, Pre-emergence, flood test species, scale 0 to 10 where 0 is no effect and 10 is complete control
[10] = Rate 250 g/ha, Pre-emergence, flood-test species, scale 0 to 10, 0 is no effect, 10 is complete control
[11] = Rate 500 g/ha, Pre-emergence, flood test species, scale 0 to 10 (0 no effect, 10 complete control)

Cc1ccccc1-n1c(=O)on(C(=O)N(c2ccc(C(C)C)cc2)C(C)C)c1=O [Compound 231]
B. signalgrass plant response rating (surinam grass; [1]): 0 | B. signalgrass plant response rating (surinam grass; Preemergence, Rate 250 g/ha, scale 0 to 10, 0 is no effect, 10 is complete control): 0 | Plant response rating, B. signalgrass (surinam grass; [2]): 0 | B. signalgrass plant response rating (surinam grass; [3]): 0 | B. signalgrass plant response rating (surinam grass; Rate 125 g/ha, Postemergence, scale 0 (no effect) to 10 (complete control)): 0 | B. signalgrass plant response rating (surinam grass; [4]): 0 | Plant response rating (0 to 10; 0 is no effect, 10 is complete control), B. signalgrass (surinam grass; Rate 250 g/ha, Postemergence): 0 | B. signalgrass plant response rating (surinam grass; [5]): 0 | Cocklebur plant response rating (cocklebur; [1]): 0 | Cocklebur plant response rating (cocklebur; [6]): 0 | Plant response rating, Cocklebur (cocklebur; [2]): 0 | Cocklebur plant response rating (cocklebur; [3]): 0 | Cocklebur plant response rating (cocklebur; [7]): 0 | Cocklebur plant response rating (cocklebur; [4]): 0 | Plant response rating (0 to 10; 0 is no effect, 10 is complete control), Cocklebur (cocklebur; Rate 250 g/ha, Postemergence): 0 | Cocklebur plant response rating (cocklebur; [5]): 0 | Corn plant response rating (corn; [1]): 0 | Corn plant response rating (corn; [6]): 0 | Plant response rating, Corn (corn; [2]): 0 | Corn plant response rating (corn; [3]): 0 | Corn plant response rating (corn; [7]): 0 | Corn plant response rating (corn; [4]): 0 | Plant response rating (0 to 10; 0 is no effect, 10 is complete control), Corn (corn; Rate 250 g/ha, Postemergence): 0 | Corn plant response rating (corn; [5]): 0 | Crabgrass plant response rating (crabgrass; [1]): 0 | Crabgrass plant response rating (crabgrass; [6]): 0 | Plant response rating, Crabgrass (crabgrass; [2]): 7 | Crabgrass plant response rating (crabgrass; [3]): 0 | Crabgrass plant response rating (crabgrass; [7]): 0 | Crabgrass plant response rating (crabgrass; [4]): 0 | Plant response rating (0 to 10; 0 is no effect, 10 is complete control), Crabgrass (crabgrass; Rate 250 g/ha, Postemergence): 0 | Crabgrass plant response rating (crabgrass; [5]): 2 | Giant foxtail plant response rating (giant foxtail; [1]): 0 | Giant foxtail plant response rating (giant foxtail; [6]): 3 | Plant response rating, Giant foxtail (giant foxtail; [2]): 8 | Giant foxtail plant response rating (giant foxtail; [3]): 0 | Giant foxtail plant response rating (giant foxtail; [7]): 0 | Giant foxtail plant response rating (giant foxtail; [4]): 0 | Plant response rating (0 to 10; 0 is no effect, 10 is complete control), Giant foxtail (giant foxtail; Rate 250 g/ha, Postemergence): 0 | Giant foxtail plant response rating (giant foxtail; [5]): 0 | Morningglory plant response rating (morningglory; [1]): 0 | Morningglory plant response rating (morningglory; [6]): 0 | Plant response rating, Morningglory (morningglory; [2]): 6 | Morningglory plant response rating (morningglory; [3]): 1 | Morningglory plant response rating (morningglory; [7]): 2 | Morningglory plant response rating (morningglory; [4]): 0 | Plant response rating (0 to 10; 0 is no effect, 10 is complete control), Morningglory (morningglory; Rate 250 g/ha, Postemergence): 3 | Morningglory plant response rating (morningglory; [5]): 4 | Redroot pigweed plant response rating (pigweed; [1]): 0 | Redroot pigweed plant response rating (pigweed; [6]): 0 | Plant response rating, Redroot pigweed (pigweed; [2]): 0 | Redroot pigweed plant response rating (pigweed; [3]): 0 | Redroot pigweed plant response rating (pigweed; [7]): 0 | Redroot pigweed plant response rating (pigweed; [4]): 0 | Plant response rating (0 to 10; 0 is no effect, 10 is complete control), Redroot pigweed (pigweed; Rate 250 g/ha, Postemergence): 0 | Redroot pigweed plant response rating (pigweed; [5]): 0 | Rape plant response rating (rape; [1]): 0 | Rape plant response rating (rape; [6]): 0 | Plant response rating, Rape (rape; [2]): 0 | Rape plant response rating (rape; [3]): 0 | Rape plant response rating (rape; [7]): 0 | Rape plant response rating (rape; [4]): 0 | Plant response rating (0 to 10; 0 is no effect, 10 is complete control), Rape (rape; Rate 250 g/ha, Postemergence): 0 | Rape plant response rating (rape; [5]): 0 | Soybean plant response rating (soybean; [1]): 0 | Soybean plant response rating (soybean; [6]): 0 | Plant response rating, Soybean (soybean; [2]): 0 | Soybean plant response rating (soybean; [3]): 0 | Soybean plant response rating (soybean; [7]): 1 | Soybean plant response rating (soybean; [4]): 0 | Plant response rating (0 to 10; 0 is no effect, 10 is complete control), Soybean (soybean; Rate 250 g/ha, Postemergence): 1 | Soybean plant response rating (soybean; [5]): 1 | Sugarbeets plant response rating (sugar beet; [1]): 0 | Sugarbeets plant response rating (sugar beet; [6]): 0 | Plant response rating, Sugarbeets (sugar beet; [2]): 0 | Sugarbeets plant response rating (sugar beet; [3]): 0 | Sugarbeets plant response rating (sugar beet; [7]): 0 | Sugarbeets plant response rating (sugar beet; [4]): 0 | Plant response rating (0 to 10; 0 is no effect, 10 is complete control), Sugarbeets (sugar beet; Rate 250 g/ha, Postemergence): 0 | Sugarbeets plant response rating (sugar beet; [5]): 0 | Wild oats plant response rating (wild oat; [1]): 0 | Wild oats plant response rating (wild oat; [6]): 0 | Plant response rating, Wild oats (wild oat; [2]): 0 | Wild oats plant response rating (wild oat; [3]): 0 | Wild oats plant response rating (wild oat; [7]): 0 | Wild oats plant response rating (wild oat; [4]): 0 | Plant response rating (0 to 10; 0 is no effect, 10 is complete control), Wild oats (wild oat; Rate 250 g/ha, Postemergence): 0 | Wild oats plant response rating (wild oat; [5]): 0 | Nutsedge plant response rating (purple nutsedge; [1]): 0 | Nutsedge plant response rating (purple nutsedge; [6]): 0 | Plant response rating, Nutsedge (purple nutsedge; [2]): 0 | Nutsedge plant response rating (purple nutsedge; [3]): 0 | Nutsedge plant response rating (purple nutsedge; [7]): 0 | Nutsedge plant response rating (purple nutsedge; [4]): 0 | Plant response rating (0 to 10; 0 is no effect, 10 is complete control), Nutsedge (purple nutsedge; Rate 250 g/ha, Postemergence): 0 | Nutsedge plant response rating (purple nutsedge; [5]): 0 | Rice plant response rating (rice; [8]): 0 | Rice plant response rating (rice; [9]): 0 | Rice plant response rating (rice; [10]): 0 | Rice plant response rating (rice; [11]): 0 | S. Flatsedge plant response rating (smallflower flatsedge; [8]): 0 | S. Flatsedge plant response rating (smallflower flatsedge; [9]): 0 | S. Flatsedge plant response rating (smallflower flatsedge; [10]): 0 | S. Flatsedge plant response rating (smallflower flatsedge; [11]): 0 | Ducksalad plant response rating (duck salad; [8]): 0 | Ducksalad plant response rating (duck salad; [9]): 0 | Ducksalad plant response rating (duck salad; [10]): 0 | Ducksalad plant response rating (duck salad; [11]): 0 | Barnyardgrass plant response rating (bamyardgrass; [8]): 0 | Barnyardgrass plant response rating (bamyardgrass; [9]): 0 | Barnyardgrass plant response rating (bamyardgrass; [10]): 0 | Barnyardgrass plant response rating (bamyardgrass; [11]): 0
